Reference: publication PMC10942122 (Science Advances, 2024)
Values joined by “and” are separate entries in the source; they are usually repeats but may differ in a detail not shown here. Equal values may be shown once.

Tests used:
Mtb H37Rv WT [1] = settings: cited from earlier work
PptT [2] = biological target: T1, PptT (Mycobacterium tuberculosis, UniProt O33336); assay: BpsA assay of PptT activity with native CoA; assay type: biochemical
T1 sequence (O33336 1-227): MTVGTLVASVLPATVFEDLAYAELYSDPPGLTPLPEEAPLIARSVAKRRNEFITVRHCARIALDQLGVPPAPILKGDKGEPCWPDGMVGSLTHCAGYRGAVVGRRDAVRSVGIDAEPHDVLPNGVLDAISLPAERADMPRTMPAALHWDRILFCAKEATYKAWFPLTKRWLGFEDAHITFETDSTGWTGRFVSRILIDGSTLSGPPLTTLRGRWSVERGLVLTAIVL

CoA-saturated PptT = biological target: T2, CoA-saturated PptT (Mycobacterium tuberculosis, UniProt O33336); assay: biochemical; assay type: binding
T2 sequence (O33336 1-227): T1 sequence (O33336 1-227)

Mtb H37Rv = settings: 10 μM, 24 hours, Mtb on filters
PptT [3] = biological target: T1, PptT; assay: FP-based PptT enzyme assay; assay type: biochemical
PptT [4] = biological target: T1, PptT; assay: Differential scanning fluorimetry thermal shift assay; assay type: binding; settings: for ΔTm of CoA-preincubated PptT: 50 μM Ralt-1, Hepes buffer without arginine/glutamate
PptT [5] = biological target: T1, PptT; assay: Kinetic mechanism assay for N-ACP PKS13 substrate; assay type: biochemical
Mtb H37Rv WT [6] = assay type: cell-based, Mycobacterium tuberculosis
PptT [7] = biological target: T1, PptT; assay: Preincubation and rapid dilution assay; assay type: biochemical; settings: 10 μM each preincubated, 500-fold dilution
Mtb DHFR = biological target: T3, Mtb DHFR (Mycobacterium tuberculosis, UniProt P9WNX1); assay: Dihydrofolate reductase; assay type: biochemical
T3 sequence (P9WNX1 1-161): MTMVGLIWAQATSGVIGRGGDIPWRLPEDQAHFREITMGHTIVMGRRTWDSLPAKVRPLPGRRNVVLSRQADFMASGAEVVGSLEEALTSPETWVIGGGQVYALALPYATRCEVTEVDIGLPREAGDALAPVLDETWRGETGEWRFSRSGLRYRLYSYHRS

[8] = system: Mtb pptT cKD -ATc (PptT depleted); assay type: cell-based, Mycobacterium tuberculosis; settings: PptT depleted by withholding ATc
Mtb pptH KO = assay: Minimal inhibitory concentration determination, pptH KO; assay type: cell-based; settings: Mycobacterium tuberculosis, read-out: MIC90 ΔPptH
Mtb pptT cKD +ATc = assay: microbe, parasite or virus in culture; assay type: cell-based; settings: Mycobacterium tuberculosis, read-out: MIC90 PptT KD +ATc

Row | Structure (SMILES) | MIC90 against Mtb (Mtb H37Rv WT [1]) [µM] | IC50 (PptT [2]) [nM] | Kd (CoA-saturated PptT) [nM] | % Uptake from media (Mtb H37Rv) [%] | maximum inhibition (PptT [3]; FP assay, BDP-CoA, normalized) [%] | IC50 (PptT [3]; IC50 PptT, FP assay at 100 nM PptT enzyme concentration) | IC50 (PptT [3]; IC50 PptT, FP assay, fresh/resupplied powder or purity-checked sample) [nM] | IC50 (PptT [3]; IC50 against rPptT) [nM] | Hill slope (h) (PptT [3]; concentration-response curve, FP assay) | ΔTm of CoA-preincubated PptT (PptT [4]; 1 mM CoA) [°C] | ΔTm of CoA-preincubated PptT (PptT [4]; 2 mM CoA) [°C] | gain in melting temperature (Tm) of PptT (PptT [4]; 1:10 molar ratio of protein to Ralt-1) [°C] | mode of inhibition with respect to the ACP substrate (PptT [5]) | MIC90 H37Rv (Mtb H37Rv WT [6]) [µM] | whole-cell activity / target profile against Mtb (in words) (Mtb H37Rv WT [6]) | reversibility of binding to PptT (PptT [7]) | IC50 (Mtb DHFR) [nM] | MIC90 PptT KD -ATc [8] [nM] | MIC (Mtb pptH KO) [µM] | MIC (Mtb pptT cKD +ATc) [µM]
1 | CN(Cc1cnc2nc(N)nc(N)c2n1)c1ccc(C(=O)N[C@@H](CCC(=O)O)C(=O)O)cc1 [Methotrexate] | > 100000 |  |  |  |  |  |  |  |  |  |  |  |  |  |  |  |  |  |  | 
2 | Cc1nc2ccc(CN(C)c3ccc(C(=O)N[C@@H](CCC(=O)O)C(=O)O)s3)cc2c(=O)[nH]1 [Ralt-1, Raltitrexed] |  | 250 | 290 ± 29 | 1.2 ± 0.1 | ≥ 100 | 70 nM and 65 nM | ~50 | 730 | 1.5 | 4 | 3 | 15 | noncompetitive mode of inhibition | >100 | no activity | readily reversible | 8500 | >100000 | > 100 | > 100
